One assay deals with Streptococcus pneumoniae. The assay can be described thus: Antibacterial activity against Streptococcus pneumoniae RCMB 010010 by broth dilution method. Format: functional.
The test system of the next assay is Bacillus subtilis. In words: Antibacterial activity against Bacillus subtilis RCMB 010067 by broth dilution method. The format is functional.
In assay [1] the test system is Staphylococcus aureus. The assay can be described thus: Antibacterial activity against Staphylococcus aureus RCMB 010025 by broth dilution method. The format is functional.
For assay [2], the system named is Pseudomonas aeruginosa. In words: Antibacterial activity against Pseudomonas aeruginosa RCMB 010043 by broth dilution method. The format is functional.
The subject of assay [3] is Escherichia coli. The assay can be described thus: Antibacterial activity against Escherichia coli RCMB 010052 by broth dilution method. Format: functional.
Assay [4] deals with Klebsiella pneumoniae. The assay can be described thus: Antibacterial activity against Klebsiella pneumonia RCMB 010058 by broth dilution method. The format is functional.
Assay [5] has as its system Pseudomonas aeruginosa. In words: Antibacterial activity against Pseudomonas aeruginosa 12 incubated for 20 hrs by agar dilution method. The format is functional.
In assay [6] the test system is Escherichia coli. In words: Antibacterial activity against Escherichia coli NIHJ JC2 incubated for 20 hrs by agar dilution method. The format is functional.
In assay [7] the test system is Staphylococcus aureus. The assay can be described thus: Antibacterial activity against Staphylococcus aureus 209P JC1 incubated for 20 hrs by agar dilution method. The format is functional.
Assay [8] relates to Escherichia coli. In words: Antibacterial activity against Escherichia coli ATCC 25922 incubated for 24 hrs by tube dilution method. The format is functional.
Assay [9] concerns Klebsiella pneumoniae. The assay can be described thus: Antibacterial activity against Klebsiella pneumoniae ATCC 15380 incubated for 24 hrs by tube dilution method. The format is functional.
The subject of assay [10] is Pseudomonas aeruginosa. The assay can be described thus: Antibacterial activity against Pseudomonas aeruginosa ATCC 12454 incubated for 24 hrs by tube dilution method. The format is functional.
Assay [11] concerns Staphylococcus aureus. The assay can be described thus: Antibacterial activity against Staphylococcus aureus ATCC 25923 incubated for 24 hrs by tube dilution method. Format: functional.
The next assay relates to Streptococcus pyogenes. In words: Antibacterial activity against Streptococcus pyogenes ATCC 35552 incubated for 24 hrs by tube dilution method. The format is functional.
The test system of a further assay is Bacillus cereus. The assay can be described thus: Antibacterial activity against Bacillus cereus ATCC 10876 incubated for 24 hrs by microdilution method. Format: functional.
The subject of assay [12] is Enterococcus faecalis. The assay can be described thus: Antibacterial activity against Enterococcus faecalis ATCC 29212 incubated for 24 hrs by microdilution method. The format is functional.
The test system of assay [13] is Staphylococcus aureus. The assay can be described thus: Antibacterial activity against Staphylococcus aureus ATCC 25923 incubated for 24 hrs by microdilution method. The format is functional.
In the next assay the test system is Proteus mirabilis. The assay can be described thus: Antibacterial activity against Proteus mirabilis ATCC 35659 incubated for 24 hrs by microdilution method. Format: functional.
Assay [14] concerns Escherichia coli. In words: Antibacterial activity against Escherichia coli ATCC 25922 incubated for 24 hrs by microdilution method. The format is functional.
Assay [15] has as its system Pseudomonas aeruginosa. In words: Antibacterial activity against Pseudomonas aeruginosa ATCC 27853 incubated for 24 hrs by microdilution method. The format is functional.
For the next assay, the system named is Candida albicans. In words: Antifungal activity against Candida albicans ATCC 50193 incubated for 24 hrs by microdilution method. The format is functional.
For another assay, the system named is Aspergillus brasiliensis. The assay can be described thus: Antifungal activity against Aspergillus brasiliensis ATCC 16404 incubated for 24 hrs by microdilution method. The format is functional.
Another assay concerns Salmonella enterica. In words: Antibacterial activity against Salmonella enterica MTCC 3224 incubated overnight by broth dilution technique. Format: functional, organism-based.
The subject of assay [16] is Pseudomonas aeruginosa. The assay can be described thus: Antibacterial activity against Pseudomonas aeruginosa MTCC 2453 incubated overnight by broth dilution technique. Format: functional, organism-based.
Assay [17] relates to Enterococcus faecalis. In words: Antibacterial activity against Enterococcus faecalis MTCC 439 incubated overnight by broth dilution technique. The format is functional, organism-based.
Assay [18] concerns Klebsiella pneumoniae. In words: Antibacterial activity against Klebsiella pneumoniae ATCC 700603 incubated overnight by broth dilution technique. Format: functional, organism-based.
In assay [19] the test system is Escherichia coli. In words: Antibacterial activity against Escherichia coli ATCC 25922 incubated overnight by broth dilution technique. Format: functional, organism-based.

In brackets after ≈: the same amount, converted by molar mass.

For `CC(=O)OCCCSc1nnc(-c2nnn(-c3ccccc3Cl)c2-c2nnc(SCCCOC(C)=O)o2)o1`, the MIC against Streptococcus pneumoniae, against Bacillus subtilis, against Staphylococcus aureus [1], in the assay with Pseudomonas aeruginosa [2], against Escherichia coli [3] and against Klebsiella pneumoniae [4] was 31.2 µg/mL (≈ 53.9 µM) throughout.

Regarding `NCC1CCN(c2c(F)c3c(c(=O)c(C(=O)O)cn3C3CC3)c3[nH]nnc23)C1` (stereo unspecified), the MIC against Pseudomonas aeruginosa [5], against Escherichia coli [6] and in the assay on Staphylococcus aureus [7] was 0.05 µg/mL (≈ 0.129 µM) in each case.

As for `CC1CCN(c2c(Cl)c3c(c(=O)c(C(=O)O)cn3C3CC3)c3[nH]nnc23)CC1`, the minimal inhibitory concentration (MIC) against Pseudomonas aeruginosa [5], in the assay with Escherichia coli [6] and against Staphylococcus aureus [7] was 0.05 µg/mL (≈ 0.124 µM) throughout.

On to `NC1CCN(c2c(Cl)c3c(c(=O)c(C(=O)O)cn3C3CC3)c3[nH]nnc23)C1` (stereo unspecified), for which the MIC in the assay on Pseudomonas aeruginosa [5], against Escherichia coli [6] and in the assay on Staphylococcus aureus [7] was 0.05 µg/mL (≈ 0.129 µM) each time.

With `Cc1ccc(OCc2cn(Cc3ccccc3)nn2)c(-c2nn(-c3ccccc3)cc2C=O)c1`, the MIC in the assay with Escherichia coli [8], against Klebsiella pneumoniae [9], in the assay on Pseudomonas aeruginosa [10], in the assay with Staphylococcus aureus [11] and in the assay on Streptococcus pyogenes was 5.5 µg/mL (≈ 12.2 µM) throughout.

Regarding `C[C@@H]1CN(c2c(F)c(N)c3c(=O)c(C(=O)O)cn(C4CC4)c3c2F)C[C@H](C)N1` [SPARFLOXACIN], the minimum inhibitory concentration (MIC) against Pseudomonas aeruginosa [5], against Escherichia coli [6] and against Staphylococcus aureus [7] was 0.0125 µg/mL (≈ 0.0319 µM) throughout.

On to `OCC(O)CSc1nnc(-c2nnn(-c3ccccc3Cl)c2-c2nnc(SCC(O)CO)o2)o1` (stereo unspecified), for which the MIC in the assay on Streptococcus pneumoniae, against Bacillus subtilis, in the assay with Staphylococcus aureus [1], against Pseudomonas aeruginosa [2], in the assay with Escherichia coli [3] and with Klebsiella pneumoniae [4] was 4 µg/mL (≈ 7.58 µM) each time.

On to `CCCCCCCCn1nnc(-c2n[nH]c(=S)n2N)c1-c1n[nH]c(=S)n1N`, for which the MIC with Bacillus cereus, against Enterococcus faecalis [12], in the assay on Staphylococcus aureus [13], with Proteus mirabilis, in the assay with Escherichia coli [14] and in the assay on Pseudomonas aeruginosa [15] was 1 µg/mL (≈ 2.44 µM) each time. The MIC in the assay on Candida albicans and in the assay on Aspergillus brasiliensis was 1 µg/mL (≈ 2.44 µM) in each case.

For `NC1CCN(c2c(F)c3c(c(=O)c(C(=O)O)cn3C3CC3)c3[nH]nnc23)C1` (stereo unspecified), the MIC with Pseudomonas aeruginosa [5], with Escherichia coli [6] and against Staphylococcus aureus [7] was 0.05 µg/mL (≈ 0.134 µM) throughout.

Regarding `O=Cc1cn(-c2ccccc2)nc1-c1ccccc1OCc1cn(Cc2ccccc2)nn1`, the MIC in the assay with Escherichia coli [8], against Klebsiella pneumoniae [9], in the assay with Pseudomonas aeruginosa [10], against Staphylococcus aureus [11] and in the assay on Streptococcus pyogenes was 5.5 µg/mL (≈ 12.6 µM) in each case.

Take `COc1ccc(-n2cc(COc3cccc4cccnc34)nn2)cc1`: the IC50 with Salmonella enterica, in the assay on Pseudomonas aeruginosa [16], in the assay with Enterococcus faecalis [17], with Klebsiella pneumoniae [18] and in the assay on Escherichia coli [19] was 164 µg/mL (≈ 495 µM) throughout.

On to `Cc1ccc(OCc2cn(Cc3cccc(Cl)c3)nn2)c(-c2nn(-c3ccccc3)cc2C=O)c1`, for which the MIC with Escherichia coli [8], in the assay with Klebsiella pneumoniae [9], in the assay on Pseudomonas aeruginosa [10], in the assay on Staphylococcus aureus [11] and in the assay on Streptococcus pyogenes was 5.5 µg/mL (≈ 11.4 µM) in each case.

As for `O=C(O)c1cn(C2CC2)c2c(F)c(N3CCCCC3)c3nn[nH]c3c2c1=O`, the MIC against Pseudomonas aeruginosa [5], against Escherichia coli [6] and in the assay with Staphylococcus aureus [7] was 0.05 µg/mL (≈ 0.135 µM) throughout.

Turning to `O=C(O)c1ccc(-n2cc(COc3cccc4cccnc34)nn2)cc1`, the IC50 in the assay with Salmonella enterica, in the assay with Pseudomonas aeruginosa [16], with Enterococcus faecalis [17], in the assay on Klebsiella pneumoniae [18] and in the assay on Escherichia coli [19] was 106 µg/mL (≈ 306 µM) in each case.

As to `CCCCCCCCCCCCn1nnc(-c2n[nH]c(=S)n2-c2ccccc2)c1-c1n[nH]c(=S)n1-c1ccccc1`, the MIC against Bacillus cereus, against Enterococcus faecalis [12], against Staphylococcus aureus [13], in the assay with Proteus mirabilis, against Escherichia coli [14] and in the assay on Pseudomonas aeruginosa [15] was 2 µg/mL (≈ 3.4 µM) each time. Moreover, the MIC against Candida albicans and against Aspergillus brasiliensis was 2 µg/mL (≈ 3.4 µM) each time.
